Test results from ChEMBL document CHEMBL3885881, “DrugMatrix”.

Species on record: Rattus norvegicus
Test: DrugMatrix - Regimen: Daily Repeat
Format: toxicity, organism-based, Sprague-Dawley
Parameters: regimen Daily Repeat, gender Male, age 6-8 weeks
Details: in vivo, po, route oral GAVAGE, vehicle 100 % WATER; for HEMATOCRIT / HEMOGLOBIN / LEUKOCYTE COUNT / MEAN CORPUSCULAR HEMOGLOBIN / MEAN CORPUSCULAR HEMOGLOBIN CONCENTRATION / MEAN CORPUSCULAR VOLUME: tissue Blood; for ALANINE AMINOTRANSFERASE / ALBUMIN / ALKALINE PHOSPHATASE / ASPARTATE AMINOTRANSFERASE / BLOOD UREA NITROGEN / CARBON DIOXIDE / CHLORIDE / CHOLESTEROL / CREATINE PHOSPHOKINASE / CREATININE / LACTATE DEHYDROGENASE / LIPASE / PHOSPHORUS / TOTAL BILIRUBIN / TOTAL PROTEIN / URIC ACID: tissue Plasma
[1] = 0 mg/kg, 72 h, dose level Control, time 3 day
[2] = 0 mg/kg, 120 h, dose level Control, time 5 day
[3] = 58 mg/kg, 72 h, dose level Low, time 3 day
[4] = 58 mg/kg, 120 h, dose level Low, time 5 day

COc1cc2ncnc(Nc3ccc(F)c(Cl)c3)c2cc1OCCCN1CCOCC1 [GEFITINIB]
HEMATOCRIT [1]: 42.62%
HEMOGLOBIN [1]: 13.07 G/DL
LEUKOCYTE COUNT [1]: 13.95 x10E3/uL
MEAN CORPUSCULAR HEMOGLOBIN [1]: 21.47 pg
MEAN CORPUSCULAR HEMOGLOBIN CONCENTRATION [1]: 30.62 G/DL
MEAN CORPUSCULAR VOLUME [1]: 70.05 fL
ALANINE AMINOTRANSFERASE [1]: 47.67 u/L
ALBUMIN [1]: 3.8 G/DL
ALKALINE PHOSPHATASE [1]: 369 u/L
ASPARTATE AMINOTRANSFERASE [1]: 86.17 u/L
BLOOD UREA NITROGEN [1]: 16.33 mg/dL
CARBON DIOXIDE [1]: 37.33 mmol/L
CHLORIDE [1]: 104.83 MEQ/L
CHOLESTEROL [1]: 79.83 mg/dL
CREATINE PHOSPHOKINASE [1]: 392.83 u/L
CREATININE [1]: 0.68 mg/dL
LACTATE DEHYDROGENASE [1]: 426.17 u/L
LIPASE [1]: 11.67 u/L
PHOSPHORUS [1]: 11 mg/dL
TOTAL BILIRUBIN [1]: 0.55 mg/dL
TOTAL PROTEIN [1]: 6.32 G/DL
URIC ACID [1]: 0.0167 mg/dL
HEMATOCRIT [2]: 46.82%
HEMOGLOBIN [2]: 14.23 G/DL
LEUKOCYTE COUNT [2]: 13.43 x10E3/uL
MEAN CORPUSCULAR HEMOGLOBIN [2]: 20.55 pg
MEAN CORPUSCULAR HEMOGLOBIN CONCENTRATION [2]: 30.38 G/DL
MEAN CORPUSCULAR VOLUME [2]: 67.62 fL
ALANINE AMINOTRANSFERASE [2]: 44.67 u/L
ALBUMIN [2]: 3.8 G/DL
ALKALINE PHOSPHATASE [2]: 417.83 u/L
ASPARTATE AMINOTRANSFERASE [2]: 83 u/L
BLOOD UREA NITROGEN [2]: 15.33 mg/dL
CARBON DIOXIDE [2]: 38.83 mmol/L
CHLORIDE [2]: 98.17 MEQ/L
CHOLESTEROL [2]: 66.83 mg/dL
CREATINE PHOSPHOKINASE [2]: 383.17 u/L
CREATININE [2]: 0.72 mg/dL
LACTATE DEHYDROGENASE [2]: 519.67 u/L
LIPASE [2]: 4.83 u/L
PHOSPHORUS [2]: 11.07 mg/dL
TOTAL BILIRUBIN [2]: 0.55 mg/dL
TOTAL PROTEIN [2]: 6.3 G/DL
URIC ACID [2]: 0.0833 mg/dL
HEMATOCRIT [3]: 45.2%
HEMOGLOBIN [3]: 13.93 G/DL
LEUKOCYTE COUNT [3]: 13.22 x10E3/uL
MEAN CORPUSCULAR HEMOGLOBIN [3]: 21.17 pg
MEAN CORPUSCULAR HEMOGLOBIN CONCENTRATION [3]: 30.87 G/DL
MEAN CORPUSCULAR VOLUME [3]: 68.57 fL
ALANINE AMINOTRANSFERASE [3]: 47.67 u/L
ALBUMIN [3]: 3.63 G/DL
ALKALINE PHOSPHATASE [3]: 348 u/L
ASPARTATE AMINOTRANSFERASE [3]: 93.67 u/L
BLOOD UREA NITROGEN [3]: 18 mg/dL
CARBON DIOXIDE [3]: 36.33 mmol/L
CHLORIDE [3]: 108 MEQ/L
CHOLESTEROL [3]: 79.67 mg/dL
CREATINE PHOSPHOKINASE [3]: 307.67 u/L
CREATININE [3]: 0.7 mg/dL
LACTATE DEHYDROGENASE [3]: 373.67 u/L
LIPASE [3]: 10.67 u/L
PHOSPHORUS [3]: 10.37 mg/dL
TOTAL BILIRUBIN [3]: 0.37 mg/dL
TOTAL PROTEIN [3]: 5.97 G/DL
URIC ACID [3]: 0 mg/dL
HEMATOCRIT [4]: 46.33%
HEMOGLOBIN [4]: 14.27 G/DL
LEUKOCYTE COUNT [4]: 14.5 x10E3/uL
MEAN CORPUSCULAR HEMOGLOBIN [4]: 20.73 pg
MEAN CORPUSCULAR HEMOGLOBIN CONCENTRATION [4]: 30.83 G/DL
MEAN CORPUSCULAR VOLUME [4]: 67.23 fL
ALANINE AMINOTRANSFERASE [4]: 52.67 u/L
ALBUMIN [4]: 3.6 G/DL
ALKALINE PHOSPHATASE [4]: 361.67 u/L
ASPARTATE AMINOTRANSFERASE [4]: 94 u/L
BLOOD UREA NITROGEN [4]: 17.33 mg/dL
CARBON DIOXIDE [4]: 35.67 mmol/L
CHLORIDE [4]: 100.33 MEQ/L
CHOLESTEROL [4]: 85.33 mg/dL
CREATINE PHOSPHOKINASE [4]: 299.67 u/L
CREATININE [4]: 0.7 mg/dL
LACTATE DEHYDROGENASE [4]: 423.67 u/L
LIPASE [4]: 5.33 u/L
PHOSPHORUS [4]: 11.87 mg/dL
TOTAL BILIRUBIN [4]: 0.4 mg/dL
TOTAL PROTEIN [4]: 6.07 G/DL
URIC ACID [4]: 0.0333 mg/dL
